Measured values taken from patent publication US20110015067A1, “Herbicidal Compositions Comprising Pyroxasulfone” (BASF SE, priority 2008, published 2011).

Columns and labels:
Assay type in all cases: in vivo
[1] = test system: ALOMY (Alopecurus myosuroides); experiment: pre-emergence greenhouse test; details: for observed activity in % destruction: pre-emergence, 7.5 g ai/ha
Text: (§1) For the pre-emergence treatment, directly after sowing the active compounds, which had been suspended or emulsified in water, were applied by means of finely distributed nozzles. The containers were irrigated gently to promote germination and growth and subsequently covered with transparent plastic hoods until plant had rooted. This cover caused uniform germination of the tests plants, unless this was adversely affected by active compounds.
(§2) The respective herbicides A and/or safener were formulated as 10% by weight strength suspension concentrate and introduced to the spray liquor with the amount of solvent system used for applying the active compound. Herbicide B and/or safener were used as commercially available formulations and introduced to the spray liquor with the amount of solvent system used for applying the active compound. In the examples, the solvent used was water.
(§3) The test period extended over 20 days. During this time, the plants were tended, and their response to the treatments with active compound was evaluated.
(§4) In the following experiments, the herbicidal activity for the individual herbicide compounds (solo application) and of the mixture was assessed 8 days after treatment (8 DAT) and/or 20 days after treatment (20 DAT).
(§5) The evaluation for the damage caused by the chemical compositions was carried out using a scale from 0 to 100%, compared to the untreated control plants. Here, 0 means no damage and 100 means complete destruction of the plants.

[2] = test system: AMARE (Amaranthus retroflexus); experiment: pre-emergence greenhouse test
Text: as §1, §2, §3, §4, §5

[3] = test system: AMBEL (Ambrosia artemisifolia); experiment: pre-emergence greenhouse test; details: for observed activity in % destruction: pre-emergence, 15 g ai/ha
Text: as §1, §2, §3, §4, §5

[4] = test system: BRAPL (Brachiaria plantaginea); experiment: pre-emergence greenhouse test; details: BRAPL pre-emergence 7.5 g ai/ha
Text: as §1, §2, §3, §4, §5

[5] = test system: COMBE (Commelina benghalensis); experiment: pre-emergence greenhouse test; details: for observed activity in % destruction: pre-emergence
Text: as §1, §2, §3, §4, §5

[6] = test system: ECHCG (Echinochloa crus-galli); experiment: pre-emergence greenhouse test
Text: as §1, §2, §3, §4, §5

ERBVI = experiment: pre-emergence greenhouse test
Text: as §1, §2, §3, §4, §5

[7] = test system: PANDI (Panicum dichotomiflorum); experiment: pre-emergence greenhouse test; details: PANDI pre-emergence 7.5 g ai/ha
Text: as §1, §2, §3, §4, §5

[8] = test system: PANMI (Panicum milliaceum); experiment: pre-emergence greenhouse test
Text: as §1, §2, §3, §4, §5

PHBPU (Ipomoea purpurea) = experiment: pre-emergence greenhouse test
Text: as §1, §2, §3, §4, §5

SETFA (Setaria faberii) = experiment: pre-emergence greenhouse test
Text: as §1, §2, §3, §4, §5

SETVI (Setaria viridis) = experiment: pre-emergence greenhouse test
Text: as §1, §2, §3, §4, §5

SOLNI (Solanum nigrum) = experiment: pre-emergence greenhouse test; details: for observed activity in % destruction: pre-emergence, 7.5 g ai/ha
Text: as §1, §2, §3, §4, §5

[9] = test system: ALOMY (Alopecurus myosuroides); experiment: post-emergence greenhouse test
Text: (§6) For the post-emergence treatment, the test plants were first grown to a height of 3 to 20 cm, depending on the plant habit, and only then treated. Here, the herbicidal compositions were suspended or emulsified in water as distribution medium and sprayed using finely distributing nozzles.
as §2, §3, §4, §5

[10] = test system: CHEAL (Chenopodium album); experiment: post-emergence greenhouse test; details: 15 g ai/ha
Text: as §6, §2, §3, §4, §5

[11] = ALOMY pre-emergence 3.75 g ai/ha
[12] = ALOMY pre-emergence 7.5 g ai/ha
[13] = AMARE pre-emergence 3.75 g ai/ha
[14] = AMARE pre-emergence 7.5 g ai/ha
[15] = COMBE pre-emergence 3.75 g ai/ha
[16] = COMBE pre-emergence 7.5 g ai/ha
[17] = ECHCG pre-emergence 7.5 g ai/ha
[18] = SETVI pre-emergence 3.75 g ai/ha
[19] = SOLNI pre-emergence 7.5 g ai/ha

Question: `COCc1cnc(C2=NC(C)(C(C)C)C(=O)N2)c(C(=O)O)c1` (stereo not shown) [imazamox] was tested. Which “observed % destruction 8 DAT” value [1, 11] did it give?
Answer: Its value is 20%.

Question: What about the “observed % destruction 20 DAT” value [1, 11] of the same compound?
Answer: Its value is 40%.

Question: And the “observed % destruction 8 DAT” value [1, 12]?
Answer: Its value is 30%.

Question: What about the “observed % destruction 20 DAT” value [1, 12] of the same compound?
Answer: The value was 40%.

Question: What about the “observed % destruction 8 DAT” value ([1]; ALOMY pre-emergence 15 g ai/ha) of the same compound?
Answer: Its value is 50%.

Question: What about the “observed % destruction 20 DAT” value ([1]; ALOMY pre-emergence 15 g ai/ha) of the same compound?
Answer: Its value is 80%.

Question: And the “observed activity in % destruction” value ([1]; 8 DAT)?
Answer: The value was 30%.

Question: What about the “observed activity in % destruction” value ([1]; 20 DAT) of the same compound?
Answer: Its value is 40%.

Question: And the “observed % destruction 8 DAT” value [2, 13]?
Answer: The value was 20%.

Question: What about the “observed % destruction 20 DAT” value [2, 13] of the same compound?
Answer: The value was 30%.

Question: And the “observed % destruction 8 DAT” value [2, 14]?
Answer: The value was 55%.

Question: And the “observed % destruction 20 DAT” value [2, 14]?
Answer: The value was 80%.

Question: And the “observed % destruction 8 DAT” value ([2]; AMARE pre-emergence 15 g ai/ha)?
Answer: Its value is 65%.

Question: What about the “observed % destruction 20 DAT” value ([2]; AMARE pre-emergence 15 g ai/ha) of the same compound?
Answer: Its value is 95%.

Question: What about the “observed % destruction 8 DAT” value ([3]; AMBEL pre-emergence 15 g ai/ha) of the same compound?
Answer: The value was 50%.

Question: What about the “observed % destruction 20 DAT” value ([3]; AMBEL pre-emergence 15 g ai/ha) of the same compound?
Answer: Its value is 80%.

Question: And the “observed activity in % destruction” value ([3]; 8 DAT)?
Answer: The value was 50%.

Question: What about the “observed activity in % destruction” value ([3]; 20 DAT) of the same compound?
Answer: The value was 80%.

Question: And the “observed % destruction 8 DAT” value [4]?
Answer: The value was 0%.

Question: And the “observed % destruction 20 DAT” value [4]?
Answer: The value was 45%.

Question: What about the “observed % destruction 8 DAT” value [5, 15] of the same compound?
Answer: The value was 20%.

Question: What about the “observed % destruction 20 DAT” value [5, 15] of the same compound?
Answer: The value was 30%.

Question: What about the “observed % destruction 8 DAT” value [5, 16] of the same compound?
Answer: The value was 40%.

Question: And the “observed % destruction 20 DAT” value [5, 16]?
Answer: Its value is 35%.

Question: What about the “observed % destruction 8 DAT” value ([5]; COMBE pre-emergence 15 g ai/ha) of the same compound?
Answer: Its value is 50%.

Question: What about the “observed % destruction 20 DAT” value ([5]; COMBE pre-emergence 15 g ai/ha) of the same compound?
Answer: Its value is 75%.

Question: What about the “observed activity in % destruction” value ([5]; 3.75 g ai/ha, 8 DAT) of the same compound?
Answer: The value was 20%.

Question: And the “observed activity in % destruction” value ([5]; 3.75 g ai/ha, 20 DAT)?
Answer: Its value is 30%.

Question: What about the “observed activity in % destruction” value ([5]; 7.5 g ai/ha, 8 DAT) of the same compound?
Answer: The value was 40%.

Question: And the “observed activity in % destruction” value ([5]; 7.5 g ai/ha, 20 DAT)?
Answer: The value was 35%.

Question: What about the “observed % destruction 20 DAT” value ([6]; ECHCG pre-emergence 3.75 g ai/ha) of the same compound?
Answer: The value was 0%.

Question: What about the “observed % destruction 8 DAT” value [6, 17] of the same compound?
Answer: Its value is 20%.

Question: And the “observed % destruction 20 DAT” value [6, 17]?
Answer: Its value is 10%.

Question: What about the “observed % destruction 8 DAT” value ([6]; ECHCG pre-emergence 15 g ai/ha) of the same compound?
Answer: Its value is 60%.

Question: What about the “observed % destruction 20 DAT” value ([6]; ECHCG pre-emergence 15 g ai/ha) of the same compound?
Answer: The value was 75%.

Question: What about the “observed % destruction 20 DAT” value (ERBVI; ERBVI pre-emergence 3.75 g ai/ha) of the same compound?
Answer: The value was 0%.

Question: What about the “observed % destruction 20 DAT” value (ERBVI; ERBVI pre-emergence 7.5 g ai/ha) of the same compound?
Answer: The value was 0%.

Question: And the “observed % destruction 20 DAT” value (ERBVI; ERBVI pre-emergence 15 g ai/ha)?
Answer: Its value is 20%.

Question: What about the “observed % destruction 8 DAT” value [7] of the same compound?
Answer: Its value is 20%.

Question: What about the “observed % destruction 20 DAT” value [7] of the same compound?
Answer: Its value is 75%.

Question: And the “observed % destruction 20 DAT” value ([8]; PANMI pre-emergence 3.75 g ai/ha)?
Answer: The value was 20%.

Question: And the “observed % destruction 20 DAT” value ([8]; PANMI pre-emergence 7.5 g ai/ha)?
Answer: Its value is 30%.

Question: And the “observed % destruction 20 DAT” value (PHBPU (Ipomoea purpurea); PHBPU pre-emergence 7.5 g ai/ha)?
Answer: The value was 20%.

Question: And the “observed % destruction 20 DAT” value (PHBPU (Ipomoea purpurea); PHBPU pre-emergence 15 g ai/ha)?
Answer: The value was 70%.

Question: And the “observed % destruction 20 DAT” value (SETFA (Setaria faberii); SETFA pre-emergence 3.75 g ai/ha)?
Answer: The value was 30%.

Question: And the “observed % destruction 20 DAT” value (SETFA (Setaria faberii); SETFA pre-emergence 7.5 g ai/ha)?
Answer: Its value is 60%.

Question: And the “observed % destruction 20 DAT” value (SETFA (Setaria faberii); SETFA pre-emergence 15 g ai/ha)?
Answer: The value was 85%.

Question: And the “observed % destruction 8 DAT” value (SETVI (Setaria viridis); [18])?
Answer: Its value is 0%.

Question: What about the “observed % destruction 20 DAT” value (SETVI (Setaria viridis); [18]) of the same compound?
Answer: Its value is 20%.

Question: What about the “observed % destruction 20 DAT” value (SETVI (Setaria viridis); SETVI pre-emergence 7.5 g ai/ha) of the same compound?
Answer: Its value is 90%.

Question: What about the “observed % destruction 8 DAT” value (SETVI (Setaria viridis); SETVI pre-emergence 15 g ai/ha) of the same compound?
Answer: The value was 85%.

Question: What about the “observed % destruction 20 DAT” value (SETVI (Setaria viridis); SETVI pre-emergence 15 g ai/ha) of the same compound?
Answer: Its value is 95%.

Question: What about the “observed % destruction 20 DAT” value (SOLNI (Solanum nigrum); SOLNI pre-emergence 3.75 g ai/ha) of the same compound?
Answer: Its value is 20%.

Question: And the “observed % destruction 8 DAT” value (SOLNI (Solanum nigrum); [19])?
Answer: The value was 30%.

Question: And the “observed % destruction 20 DAT” value (SOLNI (Solanum nigrum); [19])?
Answer: Its value is 80%.

Question: What about the “observed % destruction 20 DAT” value (SOLNI (Solanum nigrum); SOLNI pre-emergence 15 g ai/ha) of the same compound?
Answer: The value was 85%.

Question: And the “observed activity in % destruction” value (SOLNI (Solanum nigrum); 8 DAT)?
Answer: Its value is 30%.

Question: What about the “observed activity in % destruction” value (SOLNI (Solanum nigrum); 20 DAT) of the same compound?
Answer: Its value is 80%.

Question: What about the “observed activity in % destruction” value ([9]; 3.75 g ai/ha, 8 DAT) of the same compound?
Answer: The value was 25%.

Question: What about the “observed activity in % destruction” value ([9]; 3.75 g ai/ha, 20 DAT) of the same compound?
Answer: Its value is 30%.

Question: What about the “observed activity in % destruction” value ([9]; 7.5 g ai/ha, 8 DAT) of the same compound?
Answer: Its value is 35%.

Question: And the “observed activity in % destruction” value ([9]; 7.5 g ai/ha, 20 DAT)?
Answer: Its value is 35%.

Question: What about the “observed activity in % destruction” value ([10]; 8 DAT) of the same compound?
Answer: The value was 0%.

Question: And the “observed activity in % destruction” value ([10]; 20 DAT)?
Answer: The value was 0%.
